Assay results from the supplement of paper PMC10307832.

Tests used:
Test in all cases: relative viability (nuclei count vs DMSO), 5 days (fraction); higher = more cells survive
Serdemetan + AZD7762 = compound: c1ccc2c(CCNc3ccc(Nc4ccncc4)cc3)c[nH]c2c1 [Serdemetan] + NC(=O)Nc1cc(-c2cccc(F)c2)sc1C(=O)N[C@H]1CCCNC1 [AZD7762] (partner 0.2 µM)
In short: (§1)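 Five library-drug doses in √10 steps were combined with a fixed anchor-drug dose, or a single drug was given alone, by pin tool to lung cancer cell lines in 1536-well plates the day after seeding. Nuclei were stained and counted after 5 days. Relative viability is the nuclei count in treated wells over that in vehicle wells, taken as the median of duplicate plates.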

Selisistat + Pictilisib = compound: C1CC(C2=C(C1)C3=C(N2)C=CC(=C3)Cl)C(=O)N [Selisistat] + CS(=O)(=O)N1CCN(Cc2cc3nc(-c4cccc5[nH]ncc45)nc(N4CCOCC4)c3s2)CC1 [Pictilisib] (partner 1 µM)
In short: as §1

Selisistat + Decitabine = compound: C1CC(C2=C(C1)C3=C(N2)C=CC(=C3)Cl)C(=O)N [Selisistat] + Nc1ncn([C@H]2C[C@H](O)[C@@H](CO)O2)c(=O)n1 [Decitabine] (partner 2 µM)
In short: as §1

Serdemetan + Trametinib = compound: c1ccc2c(CCNc3ccc(Nc4ccncc4)cc3)c[nH]c2c1 [Serdemetan] + CC(=O)Nc1cccc(-n2c(=O)n(C3CC3)c(=O)c3c(Nc4ccc(I)cc4F)n(C)c(=O)c(C)c32)c1 [Trametinib] (partner 0.02 µM)
In short: as §1

Cell Line	relative viability (Serdemetan + AZD7762; first compound 0.04 µM)	relative viability (Serdemetan + AZD7762; first compound 0.1265 µM)	relative viability (Serdemetan + AZD7762; first compound 0.4 µM)	relative viability (Serdemetan + AZD7762; first compound 1.265 µM)	relative viability (Serdemetan + AZD7762; first compound 4 µM)	relative viability (Selisistat + Pictilisib; first compound 0.4 µM)	relative viability (Selisistat + Pictilisib; first compound 1.265 µM)	relative viability (Selisistat + Pictilisib; first compound 4 µM)	relative viability (Selisistat + Pictilisib; first compound 12.65 µM)	relative viability (Selisistat + Pictilisib; first compound 40 µM)	relative viability (Selisistat + Decitabine; first compound 0.4 µM)	relative viability (Selisistat + Decitabine; first compound 1.265 µM)	relative viability (Selisistat + Decitabine; first compound 4 µM)	relative viability (Selisistat + Decitabine; first compound 12.65 µM)	relative viability (Selisistat + Decitabine; first compound 40 µM)	relative viability (Serdemetan + Trametinib; first compound 0.04 µM)	relative viability (Serdemetan + Trametinib; first compound 0.1265 µM)	relative viability (Serdemetan + Trametinib; first compound 0.4 µM)	relative viability (Serdemetan + Trametinib; first compound 1.265 µM)	relative viability (Serdemetan + Trametinib; first compound 4 µM)
LK-2	0.454	0.304	0.357	0.269	0.251	0.645	0.502	0.575	0.499	0.456	0.397	0.307	0.198	0.34	0.294	0.697	0.79	0.809	0.752	0.757
LOU-NH91	0.768	0.746			0.79	0.538	0.496	0.485	0.532	0.512	0.815	0.795	0.784	0.787	0.788	0.782	0.798			0.839
LU99A	0.315	0.347	0.212	0.117	0.14	0.336	0.35	0.404	0.373	0.299	0.947	0.928	0.847	0.792	0.907	0.574	0.453	0.483	0.277	0.224
LXF-289	1.07	1.11	1.07	0.982	0.846	0.845	0.812	0.633	0.747	0.85	0.425	0.379	0.337	0.355	0.431	0.638	0.624	0.652	0.621	0.503
NCI-H23	0.274	0.235	0.261		0.208	0.562	0.462		0.567	0.51	0.303	0.32		0.328	0.355	0.354	0.399	0.426		0.363
NCI-H322M	0.565	0.573	0.533	0.524	0.43	0.562	0.525		0.549	0.604	0.812	0.708		0.747	0.637	0.502	0.528	0.488	0.427	0.431
NCI-H358	0.525	0.5	0.455	0.335	0.381	0.402	0.361		0.408	0.395	0.248	0.226	0.195	0.212	0.218	0.135	0.144	0.12	0.0947	0.109
NCI-H441	1.28	1.19	1.05	0.858	0.548	0.511	0.44	0.405	0.547	0.48	0.268	0.234	0.234	0.25	0.293	0.462	0.508	0.436	0.435	0.414
NCI-H460	0.461	0.547	0.571	0.229	0.141	0.439	0.282	0.164	0.317	0.33	0.474	0.499	0.571	0.467	0.513	0.0926	0.172	0.134	0.0472	0.0554
NCI-H596	1.17	1.19	1.08	0.922	1.16	0.372	0.411	0.391	0.434	0.434	1.07	1.02	0.862	1.09	1.07	0.894	0.883	0.618	0.526	0.517
NCI-H647	0.556	0.382	0.396	0.41	0.285	0.488		0.289	0.422	0.361	0.517	0.405	0.218	0.359	0.487	0.482	0.475	0.558	0.361	0.304
NCI-H650	0.854	0.977	1.2	1.02	0.933	0.746		1.11	0.594	0.807	0.407	0.293	0.286	0.324	0.33	0.891	0.937	0.986	0.903	0.612
NCI-H727	0.562	0.437	0.526	0.443	0.481	0.354	0.435			0.423	0.851	0.891	0.446	0.898	0.818	0.376	0.37	0.367	0.382	0.33
NCI-H838	0.866	0.94	0.887	0.849	0.882	0.48	0.514	0.39	0.489	0.446	0.557	0.459	0.475	0.45	0.454	0.47	0.538	0.555	0.526	0.575
NCI-H1355	0.631	0.512	0.623	0.469	0.484	0.406	0.427		0.5	0.514	0.336	0.383	0.345	0.338	0.388	0.411	0.478	0.367	0.394	0.374
NCI-H1395	0.42	0.398	0.415	0.369	0.384	0.617	0.609	0.564	0.656	0.557	0.781	0.633		0.657	0.809	0.982	0.954	0.972	0.904	0.586
NCI-H1437	1.13	1.12	1.1	0.979	0.876	0.48	0.439	0.202	0.503	0.455	0.61	0.597	0.528	0.503	0.543	0.466	0.527	0.526	0.372	0.424

Cell Line	relative viability (Serdemetan + AZD7762; first compound 0.04 µM)	relative viability (Serdemetan + AZD7762; first compound 0.1265 µM)	relative viability (Serdemetan + AZD7762; first compound 0.4 µM)	relative viability (Serdemetan + AZD7762; first compound 1.265 µM)	relative viability (Serdemetan + AZD7762; first compound 4 µM)	relative viability (Selisistat + Pictilisib; first compound 0.4 µM)	relative viability (Selisistat + Pictilisib; first compound 1.265 µM)	relative viability (Selisistat + Pictilisib; first compound 4 µM)	relative viability (Selisistat + Pictilisib; first compound 12.65 µM)	relative viability (Selisistat + Pictilisib; first compound 40 µM)	relative viability (Selisistat + Decitabine; first compound 0.4 µM)	relative viability (Selisistat + Decitabine; first compound 1.265 µM)	relative viability (Selisistat + Decitabine; first compound 4 µM)	relative viability (Selisistat + Decitabine; first compound 12.65 µM)	relative viability (Selisistat + Decitabine; first compound 40 µM)	relative viability (Serdemetan + Trametinib; first compound 0.04 µM)	relative viability (Serdemetan + Trametinib; first compound 0.1265 µM)	relative viability (Serdemetan + Trametinib; first compound 0.4 µM)	relative viability (Serdemetan + Trametinib; first compound 1.265 µM)	relative viability (Serdemetan + Trametinib; first compound 4 µM)
NCI-H1651	0.375	0.286	0.363	0.248	0.213	0.595	0.596	0.48	0.553	0.516	0.673	0.699	0.484	0.58	0.624	0.848	0.784	0.775	0.433	0.256
NCI-H1666	0.812	0.721	0.731	0.691	0.634	0.421	0.401	0.312	0.423	0.318	0.825	0.699	0.692	0.687	0.778	0.887	0.854	0.836		0.672
NCI-H1734	0.375	0.268	0.266	0.104	0.144	0.479	0.488	0.404	0.486	0.445	0.562	0.436	0.45	0.556	0.455	0.555	0.358	0.246	0.147	0.161
NCI-H1755	0.461	0.45	0.492	0.288	0.389	0.439	0.414	0.363	0.451	0.443	0.787	0.741	0.74	0.729	0.781	0.762	0.703	0.744	0.572	0.474
NCI-H1792	0.674	0.59	0.63	0.326	0.324	0.327	0.281		0.251	0.279	0.625	0.497		0.516	0.537	0.401	0.458	0.304	0.248	0.142
NCI-H1793	0.367	0.313	0.335	0.181	0.192	0.311	0.275		0.287	0.516	0.489	0.459		0.552	0.616	0.447	0.375	0.346	0.227	0.267
NCI-H1915	0.685	0.656	0.763	0.536	0.503	0.913	0.965	0.533	0.892	0.95	0.268	0.244	0.264	0.255	0.277	0.3	0.309	0.286	0.257	0.242
NCI-H1944	0.43	0.647	0.626	0.291	0.281	0.335	0.363		0.346	0.395	0.506	0.402	0.441	0.452	0.465	0.424	0.39	0.332	0.274	0.278
NCI-H1975	0.635	0.769	0.717	0.769	0.72	0.322	0.315	0.236	0.301	0.265	0.396	0.423	0.346	0.373	0.365	0.403	0.381	0.331	0.305	0.371
NCI-H1993	0.789	0.897	0.588	0.778	0.726	0.702	0.81		0.828	0.854	0.647	0.597		0.655	0.546	0.549	0.516	0.413	0.599	0.494
NCI-H2085	0.995	0.916	0.974	0.801	0.792	0.524	0.406	0.454	0.575	0.467	0.595	0.551	0.577	0.625	0.588	0.467	0.552	0.289	0.264	0.301
NCI-H2087	1.23	0.828	0.778	0.494	0.535	0.977	0.911	0.321	0.873	0.841	0.34	0.295		0.263	0.234	0.223	0.185	0.191	0.168	0.169
NCI-H2126	0.924	1.04	0.923	0.932	1.04	0.525	0.496	0.398	0.526	0.584	0.618	0.574	0.579	0.599	0.606	0.59	0.557	0.577	0.512	0.604
NCI-H2170	0.891	0.964	0.873	0.746	0.758	0.323	0.338	0.275	0.303	0.378	0.481	0.474	0.458	0.53	0.47	0.912	0.988	0.87	0.9	0.944
NCI-H2347	0.673	0.686	0.668	0.462	0.406	0.374	0.714	0.294	0.541	0.56	0.695	0.633		0.677	0.624	0.286	0.253	0.289	0.259	0.25
NCI-H2405	0.747	0.721	0.721	0.683	0.625	0.431			0.441	0.431	0.881	0.78		0.748	0.697	0.709	0.655	0.64	0.587	0.558
NCI-H3122	1	0.975	1.03	0.929	0.71	0.558	0.606	0.262	0.608	0.704	0.387	0.502		0.499	0.4	0.246	0.238	0.252	0.245	0.206
